From patent publication US20100168176A1, “NOVEL COMPOUNDS, PHARMACEUTICAL COMPOSITIONS CONTAINING SAME, AND METHODS OF USE FOR SAME” (FASGEN LLC, priority 2006, published 2010)
Converted amounts (≈) assume the structure as drawn.

Tests used:
[1] = tested on: MCF-7 human breast cancer cells; assay: [14C]acetate incorporation into total lipids; type: cell-based; conditions: MCF7
Procedure: Measurement of [^14 C]acetate Incorporation into Total Lipids and Determination of IC50 of Compounds
This assay measures the incorporation of [^14C]acetate into total lipids and is a measure of fatty acid synthesis pathway activity in vitro. It is utilized to measure inhibition of fatty acid synthesis in vitro.
MCF-7 human breast cancer cells cultured as above, are plated at 5×10^4 cells per well in 24-well plates. Following overnight incubation, the compounds to be tested, solubilized in DMSO, are added at 5, 10, and 20 μg/ml in triplicate, with lower concentrations tested if necessary. DMSO is added to triplicate wells for a vehicle control. C75 is run at 5 and 10 μg/ml in triplicate as positive controls. After 4 hours of incubation, 0.25 μCi of [^14C]acetate (10 μl volume) is added to each well.
After 2 hours of additional incubation, medium is aspirated from the wells and 800 μl of chloroform:methanol (2:1) and 700 μl of 4 mM MgCl2 is added to each well. Contents of each well are transferred to 1.5 Eppendorf tubes, and spun at full-speed for 2 minutes in a high-speed Eppendorf Microcentrifuge 5415D. After removal of the aqueous (upper) layer, an additional 700 μl of chloroform:methanol (2:1) and 500 μl of 4 mM MgCl2 are added to each tube and then centrifuged for 1 minutes as above. The aqueous layer is removed with a Pasteur pipette and discarded. An additional 400 μl of chloroform:methanol (2:1) and 200 μl of 4 mM MgCl2 are added to each tube, then centrifuged and aqueous layer is discarded. The lower (organic) phase is transferred into a scintillation vial and dried at 40° C. under N2 gas. Once dried, 3 ml of scintillant (APB #NBC5104) is added and vials are counted for ^14C. The Beckman Scintillation counter calculates the average cpm values for triplicates.
The IC50 for the compounds is defined as the concentration of drug leading to a 50% reduction in [^14C]acetate incorporation into lipids compared to controls. This is determined by plotting the average cpm for each inhibitor concentration tested, performing linear regression and computing the best-fit line, r^2 values, and 95% confidence intervals. The average cpm values are computed by the Beckman scintillation counter (Model LS6500) for each compound concentration. Computation of linear regression, best-fit line, r^2, and 95% confidence intervals are calculated using Prism Version 3.0 (Graph Pad Software).

[2] = tested on: MCF-7 human breast cancer cells; assay: XTT cytotoxicity assay, MCF-7 (M); type: cell-based; conditions: Homo sapiens, MCF7; (M) or no code; MCF-7, 72 hours
Procedure: The XTT assay is a non-radioactive alternative for the [^51Cr] release cytotoxicity assay. XTT is a tetrazolium salt that is reduced to a formazan dye only by metabolically active, viable cells. The reduction of XTT is measured spectrophotometrically as OD490-OD650.
To measure the cytotoxicity of specific compounds against cancer cells, 9×10^3 MCF-7 human breast cancer cells, obtained from the American Type Culture Collection are plated per well in 96 well plates in DMEM medium with 10% fetal bovine serum, insulin, penicillin, and streptomycin. Following overnight culture at 37° C. and 5% CO2, the compounds to be tested, dissolved in DMSO, are added to the wells in 1 μl volume at the following concentrations: 80, 40, 20, 10, 5, 2.5, 1.25, and 0.625 μg/ml in triplicate. Additional concentrations are tested if required. 1 μl of DMSO is added to triplicate wells are the vehicle control. C75 is run at 40, 20, 10, […], 10, and 5 in triplicate as positive controls.
After 72 hours of incubation, cells are incubated for 4 hours with the XTT reagent as per manufacturer's instructions (Cell Proliferation Kit II (XTT) Roche). Plates are read at OD490 and OD650 on a Molecular Devices SpectraMax Plus Spectrophotometer. Three wells containing the XTT reagent without cells serve as the plate blank. XTT data are reported as OD490-OD650. Averages and standard error of the mean are computed using SOFTmax Pro software ([…]).
The IC50 for the compounds is defined as the concentration of drug leading to a 50% reduction in OD400-OD650 compared to controls. The OD400-OD650 are computed by the SOFTmax PRO software (Molecular Devices) for each compound concentration. IC50 is calculated by linear regression, plotting the FAS activity as percent of control versus drug concentrations. Linear regression, best-fit line, r^2, and 95% confidence intervals are determined using Prism Version 3.0 (Graph Pad Software).

OV = assay: XTT cytotoxicity assay, OV; type: cell-based
H = assay: Crystal violet cell growth assay, H; type: cell-based; conditions: read-out: Cr. Violet (IC50)
Procedure: Crystal Violet Cell Growth Assay
The crystal violet assay measure cell growth but not cytotoxicity. This assay employs crystal violet staining of fixed cells in 96-well plates with subsequent solubilization and measurement of OD490 on a spectrophotometer. The OD490 corresponds to cell growth per unit time measured. Cells are treated with the compounds of interest or vehicle controls and IC50 for each compound is computed.
To measure the cytotoxicity of specific compounds against cancer cells, 5×10^4 MCF-7 human breast cancer cells, obtained from the American Type Culture Collection are plated per well in 24 well plates in DMEM medium with 10% fetal bovine serum, penicillin, and streptomycin. Following overnight culture at 37° C. and 5% CO2, the compounds to be tested, dissolved in DMSO, are added to the wells in 1 μl volume at the following concentrations: 50, 40, 30, 20, and 10 μg/ml in triplicate. Additional concentrations are tested if required. 1 μl of DMSO is added to triplicate wells are the vehicle control. C75 is run at 10, and 5 μg/ml in triplicate as positive controls.
After 72 hours of incubation, cells are stained with 0.5 ml of Crystal Violet stain (0.5% in 25% methanol) in each well. After 10 minutes, wells are rinsed, air dried, and then solubilized with 0.5 ml 10% sodium dodecylsulfate with shaking for 2 hours. Following transfer of 100 μl from each well to a 96-well plate, plates are read at OD490 on a Molecular Devices SpectraMax Plus Spectrophotometer Average OD490 values are computed using SOFTmax Pro Software (Molecular Devices) and IC50 values are determined by linear regression analysis using Prism version 3.02 (Graph Pad Software, San Diego).

FAO = FAO SC 150 / FAO Max; conditions: for FAO Max: at the concentration given under E18

SMILES	IC50 [1] [mg/L]	IC50 [2] [mg/L]	IC50 (OV) [mg/L]	IC50 (H) [mg/L]	FAO Max: concentration at which the maximum was seen (FAO)	FAO SC 150 (FAO)	FAO Max (FAO)
CCCCCCCCC1(C)SC(=O)C=C1OCC(=O)NNc1ccc(Cl)c(Cl)c1 (stereo not drawn) [Compound 15, (5-Methyl-5-octyl-2-oxo-thiophen-4-yloxy)-acetic-acid-N′-(3,4-dichlorophenyl)-hydrazide]	13.3 (≈ 28.9 µM)	11.4 (≈ 24.8 µM)	15.2 (≈ 33.1 µM)	8.5 (≈ 18.5 µM)	0.395 μg/ml ug/ml	Neg	100% at
CCCCCCCCC1(C)SC(=O)C=C1OCC(=O)NNc1nc2ccccc2s1 (single isomer, unassigned) [Compound 17, (5-Methyl-5-octyl-2-oxo-thiophen-4-yloxy)-acetic-acid-N′-(2-benzothiazole)-hydrazide]	> 80	74 (≈ 165 µM)	38.7 (≈ 86.5 µM)	17.8 (≈ 39.8 µM)	6.25 µg/mL	4.9 µg/mL	167% @
CCCCCCCCC1(C)SC(=O)C=C1OCC(=O)NNc1cccc(C)c1 (stereo not drawn) [Compound 11, (5-Methyl-5-octyl-2-oxo-thiophen-4-yloxy)-acetic-acid-N′-(3-methylphenyl)-hydrazide]	12 (≈ 29.7 µM)	9 (≈ 22.2 µM)	10.1 (≈ 25 µM)	21.9 (≈ 54.1 µM)	1.56 µg/mL	Neg	116% @
CCCCCCCCC1(C)SC(=O)C=C1OCC(=O)NNc1ccccc1 (stereo not drawn) [Compound 10, (5-Methyl-5-octyl-2-oxo-thiophen-4-yloxy)-acetic-acid-N′-phenylhydrazide]	7.2 (≈ 18.4 µM)	6.9 (≈ 17.7 µM)	13.2 (≈ 33.8 µM)	8.4 (≈ 21.5 µM)	6.25 µg/mL	Neg	126% at
CCCCCCCCC1(C)SC(=O)C=C1OCC(=O)NNc1ccc(OC)cc1 (stereo not drawn) [Compound 13, (5-Methyl-5-octyl-2-oxo-thiophen-4-yloxy)-acetic-acid-N′-(4-methoxyphenyl)-hydrazide]	21.3 (≈ 50.6 µM)	9 (≈ 21.4 µM)	18 (≈ 42.8 µM)	12.3 (≈ 29.2 µM)	0.098 μg/ml ug/ml	Neg	103% at
CCCCCCCCC1(C)SC(=O)C=C1OCC(=O)NNc1ccc(Cl)cc1Cl (stereo not drawn) [Compound 14, (5-Methyl-5-octyl-2-oxo-thiophen-4-yloxy)-acetic-acid-N′-(2,4-dichlorophenyl)-hydrazide]	18.3 (≈ 39.8 µM)	6.9 (≈ 15 µM)	12.8 (≈ 27.9 µM)	7.3 (≈ 15.9 µM)	0.098 μg/ml ug/ml	Neg	100% at
